From patent US12010993B2, “Granular agricultural compositions” (OMS Investments, Inc., priority 2020, dated 2024)

Legend:
perennial ryegrass = test: Turfgrass greening vs commercial greening products, perennial ryegrass, Table 33; type: in vivo
Method: (§1) To further explain the positive greening response of Formulation 2, two additional trials were conducted on Kentucky bluegrass and perennial ryegrass. The additional trials compared Formulations 2 and 5 with other commercial greening products at equivalent nitrogen rates to better understand the speed of the greening response as well as the darkness of the greening response. Application rates are described in Table 31. The commercial greening products include Green Max™ Lawn Food and Turf Builder® Lawn Food available from the Scotts Company LLC (Marysville, OH). Urea was also evaluated.
(§2) For each trial, preceding application, mowing was withheld for 24 to 48 hours to ensure sufficient leaf area was present for formulation absorption. The experimental unit for turfgrass color response testing was a 3′×3′ plot. The research area for turfgrass color response contained minimal weed pressure so that product impact could be accurately and consistently assessed. Plots were separated on each side by a 2 ft. untreated buffer strip.
(§3) Formulations 2 and 5 were applied early in the morning to dew-laden turf. Green Max™ Lawn Food, Turf Builder® Lawn Food, and urea were all applied to dry turf once the morning dew had dissipated. All treatments were applied using a shaker jar and spreader box to ensure even particle coverage over the plot. Treatments applied to dry turf were watered in immediately after application with 0.18″ of water and wet-foliage applied treatments remained on the leaf surface for 24 hours prior to being watered in with 0.18″ of water. This trial design allowed for comparative evaluation of the response of turf to foliar nitrogen and iron compared to foliar nitrogen; soil applied nitrogen; and soil applied nitrogen and iron at two different rates of iron application. Turfgrass color was rated visually using the National Turfgrass Evaluation Program color rating scale (1-9). Treatments were rated for color 3 and 6 hours after application, and then 1, 3, 7, 14, and 20 days after application. Table 32 depicts testing of Kentucky bluegrass while Table 33 depicts testing of Perennial ryegrass.

Kentucky bluegrass = test: Turfgrass greening vs commercial greening products, Kentucky bluegrass, Table 32; type: in vivo
Method: as §1, §2, §3

NC(N)=O [Urea]
Turf Color (1-9) (perennial ryegrass; 1 D after initial application): 3.50 | Turf Color (1-9) (perennial ryegrass; 3 D after initial application): 3.13 | Turf Color (1-9) (perennial ryegrass; 7 D after initial application): 4.63 | Turf Color (1-9) (perennial ryegrass; 14 D after initial application): 4.88 | Turf Color (1-9) (perennial ryegrass; 20 D after initial application): 6.13 | Turf Color (1-9) (perennial ryegrass; 3 hr after initial application): 3.13 | Turf Color (1-9) (perennial ryegrass; 6 hr after initial application): 3.50 | Turf Color (1-9) (Kentucky bluegrass; 1 D after initial application): 3.88 | Turf Color (1-9) (Kentucky bluegrass; 3 D after initial application): 4.00 | Turf Color (1-9) (Kentucky bluegrass; 7 D after initial application): 4.63 | Turf Color (1-9) (Kentucky bluegrass; 14 D after initial application): 5.25 | Turf Color (1-9) (Kentucky bluegrass; 20 D after initial application): 6.25 | Turf Color (1-9) (Kentucky bluegrass; 3 hr after initial application): 3.75 | Turf Color (1-9) (Kentucky bluegrass; 6 hr after initial application): 3.75
